Experimental data: patent US9617249B2, “Benzoheterocyclic anti-bacterial agents” (UNIVERSITY OF NOTRE DAME DU LAC, priority 2008, dated 2017)
Converted amounts (≈) assume the structure as drawn.

What was measured:
Type in all cases: cell-based
[1] = tested on: Gram-positive strains; test: MIC and MBC determinations against Gram-positive strains; conditions: most Gram-positive isolates (FIG. 11)
Method: FIG. 11 illustrates the minimum inhibitory concentration (MIC) and the minimum bactericidal concentration (MBC) determinations of ND-7901 to various Gram-positive strains. A series of broths were mixed with solutions of diluted drug an inoculum was applied. After incubation, the MIC was determined as the first concentration in which the growth of the organism has been inhibited. In contrast, the MBC was measured by inoculating the series of broths used for the MIC determination onto drug-free medium. The MBC is the first dilution at which growth is not observed. ND-7901 is bactericidal against most Gram-positive isolates.

[2] = tested on: Gram-negative clinical isolate strains; test: Potency and selectivity against panel of Gram-negative clinical isolate strains; conditions: Ciprofloxacin standard (FIG. 10)
Text: (§1) FIG. 9 illustrates the potency and selectivity of ND-7901 against a panel of Gram-positive clinical isolate strains compared to a Ciprofloxacin standard in micrograms per milliliter. […] FIG. 10 illustrates the potency and selectivity of ND-7901 against a panel of Gram-negative clinical isolate strains compared to a Ciprofloxacin standard in micrograms per milliliter.

[3] = tested on: methicillin-sensitive S. aureus (MSSA), ATCC 29213; test: Time-kill assay; conditions: MSSA ATCC 29213, drug at various concentrations, Vancomycin as control (FIG. 12)
[4] = tested on: Gram-positive clinical isolate strains; test: Potency and selectivity against panel of Gram-positive clinical isolate strains; conditions: Ciprofloxacin standard (FIG. 9)
Text: as §1

[5] = tested on: S. aureus strains; test: Mutational analysis by serial transfer experiments; conditions: 0.5-2 times the MIC, after 8 passages (FIG. 14)
Method: FIG. 14 illustrates the mutational analysis of ND-7901 by serial transfer experiments. As such, the S. aureus strains were grown with ND-7901 (0.5-2 times the MIC) added and passed serially until resistance was found.

[6] = tested on: S. aureus strains; test: Mutational analysis by growth without selection and recovery on drug plates; conditions: overnight growth with no selection, drug plates at 2-4 times the MIC (FIG. 13)
Text: FIG. 13 illustrates a mutational analysis of […] by growth of S. aureus strains overnight with no selection and recovery of resistant colonies on drug plates at 2-4 times the MIC value.

[7] = tested on: Methicillin-resistant Staphylococcus aureus (MRSA); test: MIC against MRSA
Text: (§2) In embodiments, various molecules as described herein have surprising activity against MRSA. […] While this particular molecule has been tested previously, the present application is the first disclosure of this compound having activity against multi-drug resistant “super bug” strains. In addition, in accordance with an embodiment described herein, this compound and analogs thereof may be synthesized in high yields in just a single step. Further embodiments herein provide analogs of the afore-mentioned compounds and methods of making and using such compounds.
(§3) In accordance with an embodiment, in order to first broadly screen these compounds, an agar diffusion assay was employed to determine whether these compounds have any activity against a diverse array of organisms which include MRSA and VRE. […] FIG. 4 illustrates selectivity and potency of various benzimidazoles, benzthiazoles, and benzoxazoles against a panel of microorganisms including gram-positive bacteria, gram-negative bacteria, fungi, yeast, and mycobacteria. The minimum inhibition concentration at 90% is shown in micromolar concentration. […] Therefore many of the compounds had their MICs determined which reflected many of the findings of the diffusion assay. FIG. 5 illustrates the chemical structure, molecular weight, and chemical formula of most of the compounds of FIG. 4.

[8] = tested on: Vancomycin-Resistant Enterococcus (VRE); test: MIC against VRE
Text: as §2, §3

Row | Compound | bactericidal character (MBC versus MIC) [1] | activity against Gram-negative isolates [2] | kinetics of bacteria death (time-kill) [3] | activity against Gram-positive isolates [4] | level of resistance after serial passage [5] | spontaneous resistant mutants recovered [6] | MIC [7] | MIC [8]
1 | O=[N+]([O-])c1ccc(-c2nc3cccc(O)c3[nH]2)o1 [ND-7901] | bactericidal | limited activity | rapid kinetics of bacteria death | good activity | very low level of resistance | no spontaneous mutants were recovered | – | –
2 | O=[N+]([O-])c1ccc(-c2nc3ccccc3[nH]2)o1 [nitrofuran benzimidazole] | – | – | – | – | – | – | 8 µM (≈ 1.83 µg/mL) | 16 µM (≈ 3.67 µg/mL)
